Results on twelve molecules are retold here after ChEMBL document CHEMBL5352432, “Ad-hoc modifications of cyclic mimetics of SOCS1 protein: Structural and functional insights” (Eur J Med Chem, 2022).

Structures are written as SMILES. Calls of active or inactive are those of the source. The calls are words filed in the database; no cut-off is given here. Positions of bridges follow the written chain, without caps; N, C: chain ends. Non-standard residues stand in square brackets, D forms with d. Residues, ends and D or L forms follow the SMILES beside them. *: point of attachment. 1Nal = N[C@@H](Cc1cccc2ccccc12)C(=O)O; hArg = N=C(N)NCCCC[C@H](N)C(=O)O; Cit = NC(=O)NCCC[C@H](N)C(=O)O; Orn = NCCC[C@H](N)C(=O)O; Ac5c = NC1(C(=O)O)CCCC1; Dap = NC[C@H](N)C(=O)O; Acm = CC(=O)NC*

In data set [1] the target is Tyrosine-protein kinase JAK2 (Homo sapiens, UniProt O60674). Description: Binding affinity to His-tagged JAK2 catalytic domain (826 to 1132 residues) (unknown origin) assessed as dissociation constant incubated for 30 mins by MST analysis.
Chain of Tyrosine-protein kinase JAK2 (O60674 whole entry, the tested form may be a part): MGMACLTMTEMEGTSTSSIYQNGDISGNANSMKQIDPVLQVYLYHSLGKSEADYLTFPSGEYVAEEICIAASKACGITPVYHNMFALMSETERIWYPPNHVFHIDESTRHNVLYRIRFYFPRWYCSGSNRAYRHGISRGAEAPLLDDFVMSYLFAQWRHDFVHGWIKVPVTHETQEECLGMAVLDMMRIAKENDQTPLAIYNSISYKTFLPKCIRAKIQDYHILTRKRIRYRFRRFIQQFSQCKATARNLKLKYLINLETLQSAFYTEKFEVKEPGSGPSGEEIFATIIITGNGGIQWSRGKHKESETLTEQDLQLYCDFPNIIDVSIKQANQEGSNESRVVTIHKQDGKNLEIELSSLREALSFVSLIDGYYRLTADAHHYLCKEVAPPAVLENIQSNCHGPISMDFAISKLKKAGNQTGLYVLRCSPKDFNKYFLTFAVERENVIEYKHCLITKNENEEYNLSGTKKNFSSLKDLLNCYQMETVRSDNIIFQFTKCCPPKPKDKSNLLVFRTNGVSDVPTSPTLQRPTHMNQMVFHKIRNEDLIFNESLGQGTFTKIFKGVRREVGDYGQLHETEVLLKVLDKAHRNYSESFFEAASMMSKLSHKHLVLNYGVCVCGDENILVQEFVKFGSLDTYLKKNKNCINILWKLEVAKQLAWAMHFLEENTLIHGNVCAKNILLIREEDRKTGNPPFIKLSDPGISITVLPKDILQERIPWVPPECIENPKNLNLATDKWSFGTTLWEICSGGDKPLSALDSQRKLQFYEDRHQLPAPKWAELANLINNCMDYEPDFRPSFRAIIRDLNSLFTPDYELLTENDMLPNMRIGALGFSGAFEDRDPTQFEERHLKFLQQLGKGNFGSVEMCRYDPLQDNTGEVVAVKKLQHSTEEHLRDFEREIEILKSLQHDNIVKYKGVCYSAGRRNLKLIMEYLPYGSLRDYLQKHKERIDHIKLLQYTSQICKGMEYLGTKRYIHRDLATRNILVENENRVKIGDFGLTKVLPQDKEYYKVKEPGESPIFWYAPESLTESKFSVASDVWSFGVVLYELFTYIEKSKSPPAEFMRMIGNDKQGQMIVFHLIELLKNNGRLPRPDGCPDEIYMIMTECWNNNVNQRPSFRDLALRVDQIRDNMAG
Data set [2] can be described thus: Stability of the compound in fetal bovine serum assessed as drug degradation incubated for 17 hrs by RP-HPLC analysis. Format: ADME, cell-free, Bos taurus. The conditions noted are these: cattle, read-out: Drug degradation.
Data set [3] is described as follows: Stability of the compound in fetal bovine serum incubated for 42 hrs by RP-HPLC analysis. Format: ADME, cell-free, Bos taurus. The conditions noted are these: cattle.
A short description of data set [4]: Proteolytic stability of the compound in fetal bovine serum assessed as drug degradation incubated for 42 hrs by RP-HPLC analysis. Format: ADME, cell-free, Bos taurus. The conditions noted are these: cattle.
Data set [5] can be described thus: Stability of the compound in fetal bovine serum assessed as drug degradation incubated for 42 hrs by RP-HPLC analysis. Format: ADME, cell-free, Bos taurus. The conditions noted are these: cattle, read-out: Drug degradation.
Data set [6] can be described thus: Proteolytic stability of the compound in fetal bovine serum assessed as drug degradation incubated for 17 hrs by RP-HPLC analysis. The conditions noted are these: cattle, read-out: Drug degradation. The data set is classed as ADME, cell-free, Bos taurus.

As usually defined, the Kd is the equilibrium constant for the complex coming apart. With `CC(=O)NCSC[C@@H]1NC(=O)[C@H]([C@@H](C)O)NC(=O)[C@@H](NC(C)=O)CC(=O)NCCCC[C@@H](C(=O)N[C@@H](Cc2c[nH]cn2)C(=O)O)NC(=O)[C@H](CCCNC(=N)N)NC(=O)[C@H](Cc2cccc3ccccc23)NC(=O)[C@H]([C@@H](C)O)NC(=O)[C@H](CCC(N)=O)NC(=O)[C@H](CCCNC(=N)N)NC1=O` (Ac-DTC(Acm)RQT[1Nal]RKH-OH; lactam 1-9), the Kd in data set [1] was 36 µM. Moreover, the metabolised at 17 h in data set [2] was found to be 30%.
For the molecule `CC(=O)NCSC[C@@H]1NC(=O)[C@H]([C@@H](C)O)NC(=O)[C@@H](NC(C)=O)CC(=O)NC[C@@H](C(=O)N[C@@H](Cc2c[nH]cn2)C(=O)O)NC(=O)[C@H](CCCNC(=N)N)NC(=O)[C@H](Cc2cccc3ccccc23)NC(=O)[C@H]([C@@H](C)O)NC(=O)[C@H](CCC(N)=O)NC(=O)[C@H](CCCNC(=N)N)NC1=O` (Ac-DTC(Acm)RQT[1Nal]R[Dap]H-OH; lactam 1-9), the outcome in data set [1] was inactive. Also, the Stability entry in data set [3] is reported as “Unstable”.
As to `CC(=O)NCSC[C@@H]1NC(=O)[C@H]([C@@H](C)O)NC(=O)[C@@H](NC(C)=O)CC(=O)NCCCC[C@@H](C(=O)N[C@@H](Cc2c[nH]cn2)C(=O)O)NC(=O)[C@H](CCCNC(=N)N)NC(=O)[C@H](Cc2cccc3ccccc23)NC(=O)C2(CCCC2)NC(=O)[C@H](CCC(N)=O)NC(=O)[C@H](CCCNC(=N)N)NC1=O` (Ac-DTC(Acm)RQ[Ac5c][1Nal]RKH-OH; lactam 1-9), in data set [1], the Kd was 120 µM. The Stability result in data set [4] is on record as “Stable”.
For `CC(=O)NCSC[C@@H]1NC(=O)[C@H]([C@@H](C)O)NC(=O)[C@@H](NC(C)=O)CC(=O)NCCCC[C@@H](C(=O)N[C@@H](Cc2c[nH]cn2)C(=O)O)NC(=O)[C@H](CCCNC(=N)N)NC(=O)[C@H](Cc2cccc3ccccc23)NC(=O)[C@H]([C@@H](C)O)NC(=O)[C@H](CCCNC(N)=O)NC(=O)[C@H](CCCNC(=N)N)NC1=O` (Ac-DTC(Acm)R[Cit]T[1Nal]RKH-OH; lactam 1-9), in data set [1], the Kd was 36 µM. Further, in data set [2], the metabolised at 17 h was found to be 50%.
Regarding `CC(=O)NCSC[C@@H]1NC(=O)[C@H]([C@@H](C)O)NC(=O)[C@@H](NC(C)=O)CC(=O)NCCCC[C@@H](C(=O)N[C@@H](Cc2c[nH]cn2)C(=O)O)NC(=O)[C@H](CCCCNC(=N)N)NC(=O)[C@H](Cc2cccc3ccccc23)NC(=O)[C@H]([C@@H](C)O)NC(=O)[C@H](CCCNC(N)=O)NC(=O)[C@H](CCCNC(=N)N)NC1=O` (Ac-DTC(Acm)R[Cit]T[1Nal][hArg]KH-OH; lactam 1-9), the Kd in data set [1] worked out at 31 µM. Also, in data set [3], the Stability entry is reported as “Stable”.
On to `CC(=O)NCSC[C@@H]1NC(=O)[C@H]([C@@H](C)O)NC(=O)[C@@H](NC(C)=O)CC(=O)NCCCC[C@@H](C(=O)N[C@@H](Cc2c[nH]cn2)C(=O)O)NC(=O)[C@H](CCCNC(=N)N)NC(=O)[C@H](Cc2cccc3ccccc23)NC(=O)[C@H]([C@@H](C)O)NC(=O)[C@H](CCCN)NC(=O)[C@H](CCCNC(=N)N)NC1=O` (Ac-DTC(Acm)R[Orn]T[1Nal]RKH-OH; lactam 1-9), for which the dissociation constant Kd in data set [1] is 32 µM. For the same molecule, the metabolised at 17 h in data set [2] was 30%. Moreover, in data set [5], the metabolised at 42 h amounted to 100%.
For `CC(=O)NCSC[C@@H]1NC(=O)[C@H]([C@@H](C)O)NC(=O)[C@@H](NC(C)=O)CC(=O)NCCCC[C@@H](C(=O)N[C@@H](Cc2c[nH]cn2)C(=O)O)NC(=O)[C@H](CCCCNC(=N)N)NC(=O)[C@H](Cc2cccc3ccccc23)NC(=O)[C@H]([C@@H](C)O)NC(=O)[C@H](CCCN)NC(=O)[C@H](CCCNC(=N)N)NC1=O` (Ac-DTC(Acm)R[Orn]T[1Nal][hArg]KH-OH; lactam 1-9), the Kd in data set [1] was 39 µM. In data set [3], the Stability entry is recorded as “Stable”.
Turning to `CC(=O)NCSC[C@@H]1NC(=O)C2(CCCC2)NC(=O)[C@@H](NC(C)=O)CC(=O)NCCCC[C@@H](C(=O)N[C@@H](Cc2c[nH]cn2)C(=O)O)NC(=O)[C@H](CCCNC(=N)N)NC(=O)[C@H](Cc2cccc3ccccc23)NC(=O)[C@H]([C@@H](C)O)NC(=O)[C@H](CCC(N)=O)NC(=O)[C@H](CCCNC(=N)N)NC1=O` (Ac-D[Ac5c]C(Acm)RQT[1Nal]RKH-OH; lactam 1-9), the Kd in data set [1] amounted to 260 µM. Also, the Stability result in data set [4] is on record as “Stable”.
With `CC(=O)NCSC[C@@H]1NC(=O)[C@H]([C@@H](C)O)NC(=O)[C@@H](NC(C)=O)CCC(=O)NCCCC[C@@H](C(=O)N[C@@H](Cc2c[nH]cn2)C(=O)O)NC(=O)[C@H](CCCNC(=N)N)NC(=O)[C@H](Cc2cccc3ccccc23)NC(=O)[C@H]([C@@H](C)O)NC(=O)[C@H](CCC(N)=O)NC(=O)[C@H](CCCNC(=N)N)NC1=O` (Ac-ETC(Acm)RQT[1Nal]RKH-OH; lactam 1-9), the Kd in data set [1] amounted to 52 µM. In addition, in data set [3], the Stability entry was “Stable”.
Take `CC(=O)NCSC[C@@H]1NC(=O)[C@H]([C@@H](C)O)NC(=O)[C@@H](NC(C)=O)CCC(=O)NC[C@@H](C(=O)N[C@@H](Cc2c[nH]cn2)C(=O)O)NC(=O)[C@H](CCCNC(=N)N)NC(=O)[C@H](Cc2cccc3ccccc23)NC(=O)[C@H]([C@@H](C)O)NC(=O)[C@H](CCC(N)=O)NC(=O)[C@H](CCCNC(=N)N)NC1=O` (Ac-ETC(Acm)RQT[1Nal]R[Dap]H-OH; lactam 1-9): the Kd in data set [1] is 71 µM. Also, the Stability entry in data set [3] is on record as “Stable”.
`CC(=O)NCSC[C@@H]1NC(=O)[C@H]([C@@H](C)O)NC(=O)[C@@H](NC(C)=O)CCC(=O)NCCC[C@@H](C(=O)N[C@@H](Cc2c[nH]cn2)C(=O)O)NC(=O)[C@H](CCCNC(=N)N)NC(=O)[C@H](Cc2cccc3ccccc23)NC(=O)[C@H]([C@@H](C)O)NC(=O)[C@H](CCC(N)=O)NC(=O)[C@H](CCCNC(=N)N)NC1=O` (Ac-ETC(Acm)RQT[1Nal]R[Orn]H-OH; lactam 1-9): the result in data set [1] was inactive. Also, in data set [3], the Stability entry is reported as “Unstable”.
For `CC(=O)NCSC[C@@H]1NC(=O)[C@H]([C@@H](C)O)NC(=O)[C@@H](NC(C)=O)CCCCNC(=O)C[C@@H](C(=O)N[C@@H](Cc2c[nH]cn2)C(=O)O)NC(=O)[C@H](CCCNC(=N)N)NC(=O)[C@H](Cc2cccc3ccccc23)NC(=O)[C@H]([C@@H](C)O)NC(=O)[C@H](CCC(N)=O)NC(=O)[C@H](CCCNC(=N)N)NC1=O` (Ac-KTC(Acm)RQT[1Nal]RDH-OH; lactam 1-9), in data set [1], the Kd came out at 160 µM. The metabolised at 17 h in data set [6] came to 100%.
